Measurements taken from patent US9480259B2, “Pyrazolopyrans having herbicidal and pharmaceutical properties” (BASF SE, priority 2012, dated 2016).

molecular target: Arabidopsis thaliana SHMT; assay: SHMT activity assay (ED50 SHMT), coupled with N5,N10-CH2-THF dehydrogenase, NADH at 340 nm; assay type: biochemical; conditions: Table 2; values given as upper bounds
How it was run: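 His-tagged SHMT purified on Ni-NTA. NADH formation followed at 340 nm for 30 min; ED50 from inhibition of initial velocity.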

Row | Structure (SMILES) | EC50
1 | COc1c(C#N)cc(C2(C3CCC3)C(C#N)=C(N)Oc3[nH]nc(C)c32)cc1C(F)(F)F (centres unmarked) [Compound 2.491] | < 0.01 µM
2 | COc1c(Br)cc(C2(C3CCC3)C(C#N)=C(N)Oc3[nH]nc(C)c32)cc1C#N (centres unmarked) [Compound 2.492] | < 0.01 µM
3 | Cc1n[nH]c2c1C(c1cc(Cl)cc(-c3ccc(-c4nnn[nH]4)cc3)c1)(C1CCC1)C(C#N)=C(N)O2 (centres unmarked) [Compound 2.493] | < 0.01 µM
4 | Cc1n[nH]c2c1C(c1cccc(-c3cccc(C(=O)O)c3)c1)(C1CCC1)C(C#N)=C(N)O2 (centres unmarked) [Compound 2.494] | < 0.1 µM
5 | Cc1n[nH]c2c1C(c1cccc(-c3ccc(C(=O)O)cc3)c1)(C1CCC1)C(C#N)=C(N)O2 (centres unmarked) [Compound 2.495] | < 0.01 µM
6 | Cc1n[nH]c2c1C(c1cc(Cl)cc(CCC(=O)O)c1)(C1(F)CC1)C(C#N)=C(N)O2 (centres unmarked) [Compound 2.497] | < 0.1 µM
7 | Cc1n[nH]c2c1C(c1cc(Cl)cc(CC(=O)O)c1)(C1(F)CC1)C(C#N)=C(N)O2 (centres unmarked) [Compound 2.498] | < 0.1 µM
8 | Cc1n[nH]c2c1C(c1cc(Cl)cc(CC(=O)O)c1)(C1CCC1)C(C#N)=C(N)O2 (centres unmarked) [Compound 2.499] | < 0.01 µM
9 | Cc1n[nH]c2c1C(c1cc(Cl)cc(CCC(=O)O)c1)(C1CCC1)C(C#N)=C(N)O2 (centres unmarked) [Compound 2.500] | < 0.01 µM
10 | Cc1n[nH]c2c1C(c1cc(Cl)cc(C(F)(F)F)c1)(C1(F)COC1)C(C#N)=C(N)O2 (centres unmarked) [Compound 2.502] | < 0.01 µM
11 | Cc1n[nH]c2c1C(c1cc(Br)cc(OCC(=O)O)c1)(C1(F)CC1)C(C#N)=C(N)O2 (centres unmarked) [Compound 2.503] | < 10 µM
12 | Cc1n[nH]c2c1C(c1cc(Cl)c(OCC(=O)O)c(Cl)c1)(C1CCC1)C(C#N)=C(N)O2 (centres unmarked) [Compound 2.504] | < 1 µM
13 | Cc1n[nH]c2c1C(c1cc(Br)cc(OCC(=O)O)c1)(C1CCC1)C(C#N)=C(N)O2 (centres unmarked) [Compound 2.507] | < 10 µM
14 | Cc1n[nH]c2c1C(c1cc(O)cc(Cl)c1)(C1CCC1)C(C#N)=C(N)O2 (centres unmarked) [Compound 2.508] | < 10 µM
15 | COC(=O)c1cc(-c2cc(C#N)cc(C3(C4CCC4)C(C#N)=C(N)Oc4[nH]nc(C)c43)c2)ccc1Cl (centres unmarked) [Compound 2.509] | < 0.01 µM
16 | Cc1n[nH]c2c1C(c1cc(C#N)cc(-c3cccc(C(=O)O)c3)c1)(C1(F)CC1)C(C#N)=C(N)O2 (centres unmarked) [Compound 2.510] | < 0.01 µM
17 | Cc1n[nH]c2c1C(c1cc(C#N)cc(-c3cccc(C(=O)O)c3)c1)(C1(F)CC1)C(C#N)=C(N)O2 (centres unmarked) [Compound 2.511] | < 0.01 µM

Row | Structure (SMILES) | EC50
18 | Cc1n[nH]c2c1C(c1cc(Cl)cc(-c3cccc(C#N)c3)c1)(C1CCC1)C(C#N)=C(N)O2 (centres unmarked) [Compound 2.512] | < 0.01 µM
19 | COC(=O)c1cc(F)cc(-c2cc(C#N)cc(C3(C4CCC4)C(C#N)=C(N)Oc4[nH]nc(C)c43)c2)c1 (centres unmarked) [Compound 2.513] | < 0.01 µM
20 | Cc1n[nH]c2c1C(c1cc(Cl)cc(-c3cccc(-c4nnn[nH]4)c3)c1)(C1CCC1)C(C#N)=C(N)O2 (centres unmarked) [Compound 2.515] | < 0.01 µM
21 | COC(=O)c1cc(Cl)cc(-c2cc(C#N)cc(C3(C4CCC4)C(C#N)=C(N)Oc4[nH]nc(C)c43)c2)c1 (centres unmarked) [Compound 2.517] | < 0.01 µM
22 | Cc1n[nH]c2c1C(c1cc(C#N)cc(-c3ccc(C(=O)O)cc3)c1)(C(C)C)C(C#N)=C(N)O2 (centres unmarked) [Compound 2.519] | < 0.01 µM
23 | CCc1n[nH]c2c1C(c1cc(C#N)cc(C#N)c1)(C(C)C)C(C#N)=C(N)O2 (centres unmarked) [Compound 2.520] | < 0.01 µM
24 | COC(=O)c1ccc(-c2cc(C#N)cc(C3(C4CCC4)C(C#N)=C(N)Oc4[nH]nc(C)c43)c2)cc1OC (centres unmarked) [Compound 2.522] | < 0.01 µM
25 | COC(=O)CCc1cccc(-c2cc(C#N)cc(C3(C4CCC4)C(C#N)=C(N)Oc4[nH]nc(C)c43)c2)c1 (centres unmarked) [Compound 2.523] | < 0.01 µM
26 | COC(=O)Cc1cccc(-c2cc(C#N)cc(C3(C4CCC4)C(C#N)=C(N)Oc4[nH]nc(C)c43)c2)c1 (centres unmarked) [Compound 2.524] | < 0.01 µM
27 | COC(=O)CCc1cccc(-c2cc(C#N)cc(C3(C4CCC4)C(C#N)=C(N)Oc4[nH]nc(C)c43)c2)c1 (centres unmarked) [Compound 2.525] | < 0.01 µM
28 | COC(=O)Cc1ccc(-c2cc(C#N)cc(C3(C4CCC4)C(C#N)=C(N)Oc4[nH]nc(C)c43)c2)cc1 (centres unmarked) [Compound 2.526] | < 0.01 µM
29 | CCC1(c2cc(Cl)cc(C#N)c2)C(C#N)=C(N)Oc2[nH]nc(C)c21 (centres unmarked) [Compound 2.529] | < 0.01 µM
30 | CCCC1(c2cc(C#N)cc(C(F)(F)F)c2)C(C#N)=C(N)Oc2[nH]nc(C)c21 (centres unmarked) [Compound 2.531] | < 0.01 µM
31 | CCC1(c2cc(Br)cc(C#N)c2)C(C#N)=C(N)Oc2[nH]nc(C)c21 (centres unmarked) [Compound 2.532] | < 0.01 µM
32 | CCCC1(c2cc(Cl)cc(C#N)c2)C(C#N)=C(N)Oc2[nH]nc(C)c21 (centres unmarked) [Compound 2.533] | < 0.01 µM
33 | CCCC1(c2cc(Br)cc(C#N)c2)C(C#N)=C(N)Oc2[nH]nc(C)c21 (centres unmarked) [Compound 2.534] | < 0.01 µM

Other lines, results leading:

Row | EC50 | Structure (SMILES)
34 | < 0.01 µM | CCCC1(c2cc(C#N)cc(C#N)c2)C(C#N)=C(N)Oc2[nH]nc(C)c21 (centres unmarked) [Compound 2.535]
35 | < 0.01 µM | CCOC(=O)COc1ccc(-c2cc(C#N)cc(C3(C4CCC4)C(C#N)=C(N)Oc4[nH]nc(C)c43)c2)cc1 (centres unmarked) [Compound 2.536]
36 | < 0.01 µM | Cc1n[nH]c2c1C(c1cc(C#N)cc(-c3ccc(OCC(=O)O)cc3)c1)(C1CCC1)C(C#N)=C(N)O2 (centres unmarked) [Compound 2.538]
37 | < 0.01 µM | Cc1n[nH]c2c1C(c1cc(Cl)cc(CCc3nnn[nH]3)c1)(C1CCC1)C(C#N)=C(N)O2 (centres unmarked) [Compound 2.539]
38 | < 0.1 µM | Cc1n[nH]c2c1C(c1ccc(CCC(=O)O)c(Cl)c1)(C1CCC1)C(C#N)=C(N)O2 (centres unmarked) [Compound 2.542]
39 | < 0.1 µM | Cc1n[nH]c2c1C(c1ccc(CCC(=O)O)c(C(F)(F)F)c1)(C1CCC1)C(C#N)=C(N)O2 (centres unmarked) [Compound 2.543]
40 | < 0.1 µM | Cc1n[nH]c2c1C(c1ccc(CC(=O)O)c(C(F)(F)F)c1)(C1CCC1)C(C#N)=C(N)O2 (centres unmarked) [Compound 2.544]
41 | < 0.01 µM | Cc1n[nH]c2c1C(c1cc(C#N)cc(-c3cc(F)cc(C(=O)O)c3)c1)(C1CCC1)C(C#N)=C(N)O2 (centres unmarked) [Compound 2.545]
42 | < 0.1 µM | COC(=O)c1ccc(-c2cc(C#N)cc(C3(C4CCC4)C(C#N)=C(N)Oc4[nH]nc(C)c43)c2)cc1Cl (centres unmarked) [Compound 2.546]
43 | < 0.01 µM | COc1ccc(-c2cc(C#N)cc(C3(C4CCC4)C(C#N)=C(N)Oc4[nH]nc(C)c43)c2)cc1C(F)(F)F (centres unmarked) [Compound 2.547]
44 | < 0.01 µM | COC(=O)c1cc(OC)cc(-c2cc(C#N)cc(C3(C4CCC4)C(C#N)=C(N)Oc4[nH]nc(C)c43)c2)c1 (centres unmarked) [Compound 2.548]
45 | < 0.1 µM | COC(=O)c1cc(C(=O)OC)cc(-c2cc(C#N)cc(C3(C4CCC4)C(C#N)=C(N)Oc4[nH]nc(C)c43)c2)c1 (centres unmarked) [Compound 2.549]
46 | < 0.01 µM | COC(=O)c1ccc(-c2cc(C#N)cc(C3(C4CCC4)C(C#N)=C(N)Oc4[nH]nc(C)c43)c2)cc1C(=O)OC (centres unmarked) [Compound 2.550]
47 | < 0.1 µM | COC(=O)c1cc(OC(F)(F)F)cc(-c2cc(C#N)cc(C3(C4CCC4)C(C#N)=C(N)Oc4[nH]nc(C)c43)c2)c1 (centres unmarked) [Compound 2.551]
48 | < 0.1 µM | COC(=O)c1cc(-c2cc(C#N)cc(C3(C4CCC4)C(C#N)=C(N)Oc4[nH]nc(C)c43)c2)cc(C(F)(F)F)c1 (centres unmarked) [Compound 2.552]
49 | < 0.01 µM | CC(=O)N(C)c1cc(C#N)cc(C2(C(C)C)C(C#N)=C(N)Oc3[nH]nc(C)c32)c1 (centres unmarked) [Compound 2.553]
50 | < 0.01 µM | COC(=O)c1cc(-c2cc(C#N)cc(C3(C4CCC4)C(C#N)=C(N)Oc4[nH]nc(C)c43)c2)cc([N+](=O)[O-])c1 (centres unmarked) [Compound 2.554]
51 | < 0.01 µM | Cc1n[nH]c2c1C(c1cc(Cl)cc(CCC#N)c1)(C1CCC1)C(C#N)=C(N)O2 (centres unmarked) [Compound 2.555]

Row | EC50 | Structure (SMILES)
52 | < 0.01 µM | Cc1n[nH]c2c1C(c1cc(C#N)cc(-c3ccc(Cl)c(C(=O)O)c3)c1)(C1CCC1)C(C#N)=C(N)O2 (centres unmarked) [Compound 2.556]
53 | < 0.01 µM | Cc1n[nH]c2c1C(c1cc(Cl)cc(-c3ccc(Cl)c(C(=O)O)c3)c1)(C1CCC1)C(C#N)=C(N)O2 (centres unmarked) [Compound 2.557]
54 | < 0.01 µM | Cc1n[nH]c2c1C(c1cc(C#N)cc(-c3ccc(F)c(C(=O)O)c3)c1)(C1CCC1)C(C#N)=C(N)O2 (centres unmarked) [Compound 2.558]
55 | < 0.1 µM | Cc1n[nH]c2c1C(c1cc(C#N)cc(-c3cc(Cl)cc(C(=O)O)c3)c1)(C1CCC1)C(C#N)=C(N)O2 (centres unmarked) [Compound 2.559]
56 | < 0.01 µM | Cc1n[nH]c2c1C(c1cc(C#N)cc(-c3ccc(C(=O)O)c(F)c3)c1)(C1CCC1)C(C#N)=C(N)O2 (centres unmarked) [Compound 2.560]
57 | < 0.01 µM | COc1cc(-c2cc(C#N)cc(C3(C4CCC4)C(C#N)=C(N)Oc4[nH]nc(C)c43)c2)ccc1C(=O)O (centres unmarked) [Compound 2.561]
58 | < 0.01 µM | Cc1n[nH]c2c1C(c1cc(C#N)cc(-c3ccc(C(=O)O)c(Cl)c3)c1)(C1CCC1)C(C#N)=C(N)O2 (centres unmarked) [Compound 2.562]
59 | < 0.01 µM | COc1cc(C(=O)O)cc(-c2cc(C#N)cc(C3(C4CCC4)C(C#N)=C(N)Oc4[nH]nc(C)c43)c2)c1 (centres unmarked) [Compound 2.563]
60 | < 1 µM | Cc1n[nH]c2c1C(c1cc(C#N)cc(-c3cc(C(=O)O)cc(C(=O)O)c3)c1)(C1CCC1)C(C#N)=C(N)O2 (centres unmarked) [Compound 2.564]
61 | < 0.01 µM | Cc1n[nH]c2c1C(c1cc(C#N)cc(-c3ccc(C(=O)O)c(C(=O)O)c3)c1)(C1CCC1)C(C#N)=C(N)O2 (centres unmarked) [Compound 2.565]
62 | < 0.01 µM | Cc1n[nH]c2c1C(c1cc(C#N)cc(-c3cc(C(=O)O)cc([N+](=O)[O-])c3)c1)(C1CCC1)C(C#N)=C(N)O2 (centres unmarked) [Compound 2.566]
63 | < 0.1 µM | Cc1n[nH]c2c1C(c1cc(Cl)c(O)c(C#N)c1)(C1CCC1)C(C#N)=C(N)O2 (centres unmarked) [Compound 2.567]
64 | < 0.01 µM | Cc1n[nH]c2c1C(c1cc(Cl)cc(CC#N)c1)(C1CCC1)C(C#N)=C(N)O2 (centres unmarked) [Compound 2.568]
65 | < 0.01 µM | Cc1n[nH]c2c1C(c1cc(Cl)cc(Cc3nnn[nH]3)c1)(C1CCC1)C(C#N)=C(N)O2 (centres unmarked) [Compound 2.570]
66 | < 0.1 µM | COC(=O)c1cc(C(=O)O)cc(-c2cc(C#N)cc(C3(C4CCC4)C(C#N)=C(N)Oc4[nH]nc(C)c43)c2)c1 (centres unmarked) [Compound 2.571]
67 | < 0.1 µM | COC(=O)c1cc(-c2cc(C#N)cc(C3(C4CCC4)C(C#N)=C(N)Oc4[nH]nc(C)c43)c2)ccc1C(=O)O (centres unmarked) [Compound 2.572]
68 | < 0.1 µM | CCc1n[nH]c2c1C(CC)(c1cc(Cl)cc(C#N)c1)C(C#N)=C(N)O2 (centres unmarked) [Compound 2.573]
